For experiment [1] the following is noted: taste dilution tests; cited from earlier work.
A further experiment concerns trained panelists. Kind of experiment: time-intensity analysis of cooling, beverage model system. In kind it is in vivo. The settings on record: 100 ppm, 2-minute window. The procedure: In order to evaluate the potential use of menthol glycinates as […] different food, beverage and oral hygiene products, select compounds were incorporated in different application systems. A beverage model system, a lozenge and a mouthwash application were created, and time-intensity analysis was performed using trained discrimination analysis panelists. Time-Intensity (TI) is a temporal sensory method. During TI evaluations, assessors are asked to score the intensity of perception of a single attribute over consumption of the product. Compared to single point measurements, TI analysis can characterize the onset, decline and rates thereof, of particular sensory characteristics. This analysis may reveal rich information regarding the intensity of an attribute over the time domain and identify temporal perceptual differences among samples that can greatly impact the overall profile of a product. For each sample evaluation, a temporal curve is generated, based on duplication. The temporal curves for each panelist are combined to generate a combined curve for each product that is evaluated. The following distinct parameters were calculated: Imax: peak intensity or maximum observed intensity on the whole curve; […]: time point where the reaction to the stimulus is first perceived on the curve; Tmax: time position of the peak intensity on the curve; Tplateau: protraction of maximum intensity or duration of maximum intensity; Text: time point of extinction of the perception of the stimulus, defined as the position in time after the peak intensity where the measured intensity disappears (or the end of evaluation window); Iext: intensity at time of extinction or end of evaluation; R increase: slope or rate of intensity increase between […] and Tmax; R decrease: slope or rate of intensity decrease between Tmax and Text; and Area: the total area under the time-intensity curve. The formula detailed in Table 6 was employed to create a simple beverage model system to evaluate menthol glycinates of interest using time-intensity analysis. [table] For time-intensity (T-I) evaluation of the cooling attribute of the model beverage system 8 panelists were recruited (2 male, 6 female). Panelists were trained in basic taste descriptive analysis. A sweetness reference series (intensity range 2-12) was provided to be used as cross-modality reference to aid in scaling the intensity of the cool attribute present in the model beverage samples. Panelists evaluated samples in duplicates and all sample were presented blinded and in a randomized order using a 3-digit code. Panelists were instructed to hold the sample in their mouths for 30 seconds and then expectorate. During the hold period panelists were instructed to note cooling onset and intensity. After expectorating, the panelists continued to report cooling intensity at predetermined time points throughout an evaluation window of 2 minutes. Samples were presented pre-weighted, and panelists were instructed to evaluate the entire amount of sample to ensure uniformity among panelists and replicate evaluations. Evaluations were performed with at least 4 hours between them to ensure no carry over. Data analysis for generation of T-I statistics and ANOVA analysis to determine significant difference among samples was performed using R STUDIO.

Results on four compounds are retold here after patent US20210093531A1, “DERIVATIVES OF MENTHOL AND USES THEREOF” (Board of Trustees of Northern Illinois University, priority 2019, published 2021).

Marks after values point to notes of the source that are not given here.

With `CC1CCC(C(C)C)C(O)C1` (stereo not shown) [Menthol, menthol], the cooling threshold in experiment [1] was 0.8 ppm. Further, the “Imax (peak cooling intensity)” value in the experiment on trained panelists (2% propylene glycol in water) is on record as 5^a. Besides, in the experiment on trained panelists, the AUC is on record as 429.1^a, the Rdec is 0.03^a, the Rinc is recorded as 0.12^a and the “Tplateau (duration of maximum intensity)” value is recorded as 23.3^a. Besides, the Tstart in the experiment on trained panelists is recorded as 10^a.
For `CCCCN(CCCC)CC(=O)O[C@@H]1C[C@H](C)CC[C@H]1C(C)C` [Product 10, (1R,2S,5R)-2-Isopropyl-5-methylcyclohexyl 2-(dibutylamino)acetate], in the experiment with trained panelists, the Rdec was 0.06^a, the Rinc is 0.04^b and the Tstart is reported as 6.1^b.
In the same order, the values of `CC(C)[C@@H]1CC[C@@H](C)C[C@H]1OC(=O)CN(C)C(C)C` [Product 16, (1R,2S,5R)-2-Isopropyl-5-methylcyclohexyl 2-(isopropyl(methyl)amino)acetate] are 0.02^a, 0.05^b and 16^c.
For the compound “(1R,2S,5R)-2-Isopropyl-5-methylcyclohexyl 2-(isopropylamino)acetate [Product 7]”, in the experiment with trained panelists, the Rdec is given as 0.02^a, the Rinc is recorded as 0.06^b and the Tstart was 16^c.
